Laboratory results: PMC10787398, “Simultaneous determination of colistin sulfate and tigecycline in human plasma by liquid chromatography-tandem mass spectrometry method” (BMC Chemistry, 2024)

Key:
[1] = Plasma trough and peak concentrations in patients on intravenous polymyxin and tigecycline (HPLC-MS/MS); conditions: First dose 100 mg maintenance dose 50 mg q12h iv, plasma, HPLC-MS/MS; for Tigecycline Peak concentration: 30 min after 7th administration; for Tigecycline Trough concentration: before 7th administration
Source text: Plasma samples were collected from patients receiving simultaneous intravenous polymyxin and tigecycline treatment. Inclusion criteria: ① Patients receiving simultaneous intravenous polymyxin and tigecycline treatment; ② Age ≥ 18 years; ③ Patients who consent to the monitoring of polymyxin and tigecycline blood drug concentrations during treatment. Exclusion criteria: ① Pregnant or lactating women; ② Treatment duration < 3 days; ③ Local administration; ④ Blood dialysis treatment. Once the blood drug concentration reached a steady state, 3 ml of venous blood was collected before and 30 min after the seventh administration to measure the peak and trough concentrations. This study was conducted with approval from the Ethics Committee of Second Hospital of Hebei Medical University (2020-R551). This study was conducted in accordance with the declaration of Helsinki.
Two hundred microliters of the plasma sample were adopted, with 20 µL of the internal standard added, and it was vortexed for 20 s. Two hundred microliters of 5% trichloroacetic acid was added for acidification and vortexed for 10 s. Two hundred microliters of methanol was added for extraction, vortexed for 2 min, and centrifuged at 10,900 r/min for 5 min. Two hundred microliters of the supernatant were aspirated into the injection bottle, and 10 µL of the sample was injected for the HPLC–MS/MS analysis.
All patients received an initial dose of 100 mg and a maintenance dose of 50 mg q12h for tigecycline. Three milliliters of venous blood were collected before and after the seventh administration to measure the peak and trough concentrations of the drugs.

[2] = Stability of analytes in spiked plasma samples under storage conditions; format: in vitro ADME, human; conditions: for Measured value, Stored at -80℃ for 7 days / Measured value, Automatic sampler 15℃ for 24 h / Measured value, Freeze-thaw for 3 cycles / Measured value, At 4℃ for 12 h / Measured value, At room temperature for 6 h: HPLC-MS/MS, n = 5; for Measured value, Automatic sampler 15℃ for 24 h: automatic sampler 15 ℃ 24 h; for Measured value, Freeze-thaw for 3 cycles: frozen at -80 °C and thawed at room temperature; for Measured value, At 4℃ for 12 h: refrigerator 4 °C 12 h
Experimental: Plasma samples with low, medium, and high mass concentrations were prepared (the mass concentrations of colistin sulfate were 0.1, 1, and 8 µg/mL, respectively, and those of tigecycline were 0.05, 0.5, and 4 µg/mL, respectively). Five replicates of each concentration were prepared and placed in a refrigerator at 4 °C for 12 h, at room temperature for 6 h, and in an automatic sampler at 15 ℃ for 24 h. The samples were, on three occasions, frozen at − 80 °C and thawed at room temperature, and then placed in a − 80 °C refrigerator for seven days. The concentrations and RSDs of colistin sulfate and tigecycline in the plasma samples were calculated based on the accompanying standard curve of the day to evaluate their stabilities.

[3] = patient 1 (BMI 27.04 kg/m^2, CrCL 107 ml/min, ALB 33.8 g/L)
[4] = patient 2 (BMI 27.69 kg/m^2, CrCL 36 ml/min, ALB 30.35 g/L)
[5] = patient 3 (BMI 23.88 kg/m^2, CrCL 90 ml/min, ALB 26.80 g/L)
[6] = patient 4 (BMI 18.72 kg/m^2, CrCL 111 ml/min, ALB 32.50 g/L)
[7] = patient 5 (BMI 22.14 kg/m^2, CrCL 84 ml/min, ALB 28.00 g/L)
[8] = patient 6 (Femaee, BMI 19.3 kg/m^2, CrCL 161 ml/min, ALB 35.3 g/L)
[9] = patient 7 (BMI 24.16 kg/m^2, CrCL 59 ml/min, ALB 36.72 g/L)
[10] = patient 8 (BMI 27.44 kg/m^2, CrCL 98 ml/min, ALB 33.30 g/L)
[11] = patient 9 (BMI 20.91 kg/m^2, CrCL 106 ml/min, ALB 32.71 g/L)
[12] = patient 10 (BMI 21.95 kg/m^2, CrCL 129 ml/min, ALB 31.89 g/L)
[13] = patient 11 (BMI 22.51 kg/m^2, CrCL 27 ml/min, ALB 27.10 g/L)
[14] = patient 12 (BMI 23.71 kg/m^2, CrCL 170 ml/min, ALB 32.50 g/L)
[15] = plasma QC high, nominal colistin sulfate 8 µg/mL, tigecycline 4 µg/mL
[16] = plasma QC low, nominal colistin sulfate 0.1 µg/mL, tigecycline 0.05 µg/mL
[17] = plasma QC medium, nominal colistin sulfate 1 µg/mL, tigecycline 0.5 µg/mL

## CN(C)c1cc(NC(=O)CNC(C)(C)C)c(O)c2c1C[C@H]1C[C@H]3[C@H](N(C)C)C(O)=C(C(N)=O)C(=O)[C@@]3(O)C(O)=C1C2=O [Tigecycline, tigecycline]
[1]; [3]
  Tigecycline Peak concentration: 1.72 µg/mL
  Tigecycline Trough concentration: 0.79 µg/mL
[1]; [4]
  Tigecycline Peak concentration: 1.68 µg/mL
  Tigecycline Trough concentration: 0.81 µg/mL
[1]; [5]
  Tigecycline Peak concentration: 1.67 µg/mL
  Tigecycline Trough concentration: 0.77 µg/mL
[1]; [6]
  Tigecycline Peak concentration: 1.47 µg/mL
  Tigecycline Trough concentration: 0.69 µg/mL
[1]; [7]
  Tigecycline Peak concentration: 1.17 µg/mL
  Tigecycline Trough concentration: 0.58 µg/mL
[1]; [8]
  Tigecycline Peak concentration: 1.11 µg/mL
  Tigecycline Trough concentration: 0.66 µg/mL
[1]; [9]
  Tigecycline Peak concentration: 1.01 µg/mL
  Tigecycline Trough concentration: 0.58 µg/mL
[1]; [10]
  Tigecycline Peak concentration: 0.92 µg/mL
  Tigecycline Trough concentration: 0.63 µg/mL
[1]; [11]
  Tigecycline Peak concentration: 1.22 µg/mL
  Tigecycline Trough concentration: 0.65 µg/mL
[1]; [12]
  Tigecycline Peak concentration: 1.08 µg/mL
  Tigecycline Trough concentration: 0.33 µg/mL
[1]; [13]
  Tigecycline Peak concentration: 0.99 µg/mL
  Tigecycline Trough concentration: 0.25 µg/mL
[1]; [14]
  Tigecycline Peak concentration: 1.78 µg/mL
  Tigecycline Trough concentration: 0.48 µg/mL
[2]; plasma QC high, nominal colistin sulfate 8 µg/mL, tigecycline 4 µg/mL, -80 °C 7 days
  Measured value, Stored at -80℃ for 7 days: 4.30 ± 0.03 µg/mL
[2]; [15]
  Measured value, Automatic sampler 15℃ for 24 h: 4.00 ± 0.26 µg/mL
  Measured value, Freeze-thaw for 3 cycles: 3.82 ± 0.45 µg/mL
  Measured value, At 4℃ for 12 h: 3.93 ± 0.36 µg/mL
[2]; plasma QC high, nominal colistin sulfate 8 µg/mL, tigecycline 4 µg/mL, room temperature 6 h
  Measured value, At room temperature for 6 h: 4.87 ± 0.07 µg/mL
[2]; plasma QC low, nominal colistin sulfate 0.1 µg/mL, tigecycline 0.05 µg/mL, -80 °C 7 days
  Measured value, Stored at -80℃ for 7 days: 0.05 ± 0.00 µg/mL
[2]; [16]
  Measured value, Automatic sampler 15℃ for 24 h: 0.05 ± 0.00 µg/mL
  Measured value, Freeze-thaw for 3 cycles: 0.05 ± 0.00 µg/mL
  Measured value, At 4℃ for 12 h: 0.05 ± 0.00 µg/mL
[2]; plasma QC low, nominal colistin sulfate 0.1 µg/mL, tigecycline 0.05 µg/mL, room temperature 6 h
  Measured value, At room temperature for 6 h: 0.05 ± 0.00 µg/mL
[2]; plasma QC medium, nominal colistin sulfate 1 µg/mL, tigecycline 0.5 µg/mL, -80 °C 7 days
  Measured value, Stored at -80℃ for 7 days: 0.46 ± 0.03 µg/mL
[2]; [17]
  Measured value, Automatic sampler 15℃ for 24 h: 0.49 ± 0.03 µg/mL
  Measured value, Freeze-thaw for 3 cycles: 0.52 ± 0.04 µg/mL
  Measured value, At 4℃ for 12 h: 0.46 ± 0.01 µg/mL
[2]; plasma QC medium, nominal colistin sulfate 1 µg/mL, tigecycline 0.5 µg/mL, room temperature 6 h
  Measured value, At room temperature for 6 h: 0.54 ± 0.03 µg/mL
[2]; plasma samples, 4 °C 12 h, room temperature 6 h, autosampler 15 ℃ 24 h, 3 freeze-thaw cycles, -80 °C 7 days
  stability under the above conditions: good stability
